Target: T1, ABL1 T315I (Homo sapiens, UniProt P00519, T315I)
T1 construct: purchased Thermo Fisher Scientific (Life Technologies) SelectScreen
Assay: SelectScreen Z'LYTE
Format: biochemical
In short: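 Compound tested in SelectScreen activity assays, Z'LYTE for CSF1R, CDK1/cyclin B and MAP2K6 and Adapta for CAMK1. ATP for CAMK1 was listed as 10, and Km app was used for CSF1R. Results are expressed in percent.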

## CN(C(=O)CN1CCOCC1)c1ccc2sc3c(-c4cccc5c(=O)cc(N6CC7CCC(C6)O7)oc45)cccc3c2c1 [NU5455]
  inhibition at 1 µM: -3%

— paper PMC6934184, “Selective DNA-PKcs inhibition extends the therapeutic index of localized radiotherapy and chemotherapy” (The Journal of Clinical Investigation, 2019)
